The values that follow are results of earlier work, collected in US12071673B2, “Methods of diagnosis, selection, and treatment of diseases and conditions caused by or associated with methanogens” (Cedars-Sinai Medical Center, priority 2013, dated 2024).

One data set has as its system methanogens. The settings on record: retrospective study, 10 days; for reduction in methane: breath methane.

For `C` [methane], the “reduction of proximal small bowel motility (average)” value (5 dogs, methane infused through mid-small bowel fistula) is listed as 59%. Besides, where the note is “in vivo animal study, methane infused into the small intestine”, the “slowing of small intestinal transit” value is listed as 59%.
On to `CO[C@H]1/C=C/O[C@@]2(C)Oc3c(C)c(O)c4c(O)c(c5c(nc6cc(C)ccn65)c4c3C2=O)NC(=O)/C(C)=C\C=C\[C@H](C)[C@H](O)[C@@H](C)[C@@H](O)[C@@H](C)[C@H](OC(C)=O)[C@@H]1C` [rifaximin], for which, in the data set with methanogens, the “reduction in constipation symptoms” value is on record as 56% and the reduction in methane was 28%.
On to neomycin, for which, in the data set with methanogens, the “reduction in constipation symptoms” value is recorded as 63% and the reduction in methane is on record as 33%.
